According to PubChem BioAssay (NCI):
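How tested: cells in 96-well plates exposed to compound for 48 hours at five concentrations. At the GI50, growth is halved. The concentration for full growth arrest is given as TGI.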

Columns and labels:
Experiment in all cases: DTP human tumour cell line panel, 48 h
A549 NSCLC = test system: A549 NSCLC
OVCAR-5 ovarian = test system: OVCAR-5 ovarian
EKVX NSCLC = test system: EKVX NSCLC
SK-MEL-2 melanoma = test system: SK-MEL-2 melanoma
U251 CNS = test system: U251 CNS
UO-31 renal = test system: UO-31 renal
MCF7 breast = test system: MCF7 breast
DU-145 prostate = test system: DU-145 prostate
HCC-2998 colon = test system: HCC-2998 colon
MOLT-4 leukemia = test system: MOLT-4 leukemia
M14 melanoma = test system: M14 melanoma
CCRF-CEM leukemia = test system: CCRF-CEM leukemia
SW-620 colon = test system: SW-620 colon
SR leukemia = test system: SR leukemia
SK-OV-3 ovarian = test system: SK-OV-3 ovarian
SNB-75 CNS = test system: SNB-75 CNS
MALME-3M melanoma = test system: MALME-3M melanoma
K-562 leukemia = test system: K-562 leukemia
OVCAR-3 ovarian = test system: OVCAR-3 ovarian
HT29 colon = test system: HT29 colon
HL-60(TB) leukemia = test system: HL-60(TB) leukemia
SK-MEL-5 melanoma = test system: SK-MEL-5 melanoma
UACC-62 melanoma = test system: UACC-62 melanoma
HCT-15 colon = test system: HCT-15 colon
SF-295 CNS = test system: SF-295 CNS
HCT-116 colon = test system: HCT-116 colon
PC-3 prostate = test system: PC-3 prostate
HOP-92 NSCLC = test system: HOP-92 NSCLC
NCI-H522 lung = test system: NCI-H522 lung
HS 578T breast = test system: HS 578T breast
NCI/ADR-RES ovarian = test system: NCI/ADR-RES ovarian
MDA-MB-231 breast = test system: MDA-MB-231 breast
SF-539 CNS = test system: SF-539 CNS
COLO 205 colon = test system: COLO 205 colon
OVCAR-4 ovarian = test system: OVCAR-4 ovarian
IGROV1 ovarian = test system: IGROV1 ovarian
RPMI-8226 leukemia = test system: RPMI-8226 leukemia
T-47D breast = test system: T-47D breast
SN12C renal = test system: SN12C renal
OVCAR-8 ovarian = test system: OVCAR-8 ovarian
HOP-62 NSCLC = test system: HOP-62 NSCLC
UACC-257 melanoma = test system: UACC-257 melanoma
MDA-MB-435 = test system: MDA-MB-435
SK-MEL-28 melanoma = test system: SK-MEL-28 melanoma
TK-10 renal = test system: TK-10 renal
786-0 renal = test system: 786-0 renal
NCI-H226 lung = test system: NCI-H226 lung
RXF 393 renal = test system: RXF 393 renal
A498 renal = test system: A498 renal
KM12 colon = test system: KM12 colon
BT-549 breast = test system: BT-549 breast
SNB-19 CNS = test system: SNB-19 CNS
CAKI-1 renal = test system: CAKI-1 renal
SF-268 CNS = test system: SF-268 CNS
ACHN renal = test system: ACHN renal
NCI-H460 lung = test system: NCI-H460 lung
NCI-H23 lung = test system: NCI-H23 lung

With `Cn1ccnc1C(=O)/C=C/c1ccc(NC(=O)Nc2ccccc2)cc1` the GI50 (A549 NSCLC) was 21.8 µM, the TGI (A549 NSCLC) was > 100 µM and the GI50 (OVCAR-5 ovarian) was 19.9 µM. It also gave a TGI (OVCAR-5 ovarian) of 55.1 µM, a GI50 (EKVX NSCLC) of 22.6 µM and a TGI (EKVX NSCLC) of 63.4 µM. It also gave a GI50 (SK-MEL-2 melanoma) of 16.8 µM, a TGI (SK-MEL-2 melanoma) of 36 µM and a GI50 (U251 CNS) of 13.6 µM. The TGI (U251 CNS) was 29.6 µM, the GI50 (UO-31 renal) was 14.3 µM and the TGI (UO-31 renal) was 29.4 µM. The GI50 (MCF7 breast) was 15.6 µM, the TGI (MCF7 breast) was 86.3 µM and the GI50 (DU-145 prostate) was 12.5 µM. The TGI (DU-145 prostate) was 32.5 µM, the GI50 (HCC-2998 colon) was 14.7 µM and the TGI (HCC-2998 colon) was 28.6 µM. It also gave a GI50 (MOLT-4 leukemia) of 16.5 µM, a TGI (MOLT-4 leukemia) of 85.1 µM and a GI50 (M14 melanoma) of 20.8 µM. For the same molecule, the TGI (M14 melanoma) was 58.5 µM, the GI50 (CCRF-CEM leukemia) was 21.5 µM and the TGI (CCRF-CEM leukemia) was > 100 µM. The GI50 (SW-620 colon) was 18.7 µM, the TGI (SW-620 colon) was 54.3 µM and the GI50 (SR leukemia) was 4.9 µM. The TGI (SR leukemia) was 75.3 µM, the GI50 (SK-OV-3 ovarian) was 32.5 µM and the TGI (SK-OV-3 ovarian) was > 100 µM. For the same molecule, the GI50 (SNB-75 CNS) was 12.9 µM, the TGI (SNB-75 CNS) was 26 µM and the GI50 (MALME-3M melanoma) was 18.3 µM. For the same molecule, the TGI (MALME-3M melanoma) was 50.7 µM, the GI50 (K-562 leukemia) was 8.29 µM and the TGI (K-562 leukemia) was > 100 µM. For the same molecule, the GI50 (OVCAR-3 ovarian) was 29 µM, the TGI (OVCAR-3 ovarian) was > 100 µM and the GI50 (HT29 colon) was 15.9 µM. For the same molecule, the TGI (HT29 colon) was 31 µM, the GI50 (HL-60(TB) leukemia) was 15.6 µM and the TGI (HL-60(TB) leukemia) was 69.1 µM. It also gave a GI50 (SK-MEL-5 melanoma) of 15.7 µM, a TGI (SK-MEL-5 melanoma) of 29.4 µM and a GI50 (UACC-62 melanoma) of 15.3 µM. For the same molecule, the TGI (UACC-62 melanoma) was 30.8 µM, the GI50 (HCT-15 colon) was 7.16 µM and the TGI (HCT-15 colon) was 27.2 µM. It also gave a GI50 (SF-295 CNS) of 14.8 µM, a TGI (SF-295 CNS) of 46.4 µM and a GI50 (HCT-116 colon) of 13.3 µM. For the same molecule, the TGI (HCT-116 colon) was 26.6 µM, the GI50 (PC-3 prostate) was 18.4 µM and the TGI (PC-3 prostate) was 49.5 µM. The GI50 (HOP-92 NSCLC) was 20.6 µM, the TGI (HOP-92 NSCLC) was 69.1 µM and the GI50 (NCI-H522 lung) was 13 µM. The TGI (NCI-H522 lung) was 27.3 µM, the GI50 (HS 578T breast) was 33.7 µM and the TGI (HS 578T breast) was > 100 µM. For the same molecule, the GI50 (NCI/ADR-RES ovarian) was 29 µM, the TGI (NCI/ADR-RES ovarian) was > 100 µM and the GI50 (MDA-MB-231 breast) was 16.9 µM. It also gave a TGI (MDA-MB-231 breast) of 34 µM, a GI50 (SF-539 CNS) of 13.9 µM and a TGI (SF-539 CNS) of 28.5 µM. It also gave a GI50 (COLO 205 colon) of 16.9 µM, a TGI (COLO 205 colon) of 31.6 µM and a GI50 (OVCAR-4 ovarian) of 20.2 µM. For the same molecule, the TGI (OVCAR-4 ovarian) was > 100 µM, the GI50 (IGROV1 ovarian) was 19.1 µM and the TGI (IGROV1 ovarian) was 64.1 µM. For the same molecule, the GI50 (RPMI-8226 leukemia) was 16 µM, the TGI (RPMI-8226 leukemia) was 54.8 µM and the GI50 (T-47D breast) was 23.4 µM. The TGI (T-47D breast) was > 100 µM, the GI50 (SN12C renal) was 14.9 µM and the TGI (SN12C renal) was 40.4 µM. For the same molecule, the GI50 (OVCAR-8 ovarian) was 25 µM, the TGI (OVCAR-8 ovarian) was > 100 µM and the GI50 (HOP-62 NSCLC) was 24.1 µM. It also gave a TGI (HOP-62 NSCLC) of 69.2 µM, a GI50 (UACC-257 melanoma) of 16.1 µM and a TGI (UACC-257 melanoma) of 38.8 µM. The GI50 (MDA-MB-435) was 21.6 µM, the TGI (MDA-MB-435) was 58.3 µM and the GI50 (SK-MEL-28 melanoma) was 16.2 µM. For the same molecule, the TGI (SK-MEL-28 melanoma) was 32.8 µM, the GI50 (TK-10 renal) was 29.8 µM and the TGI (TK-10 renal) was > 100 µM. The GI50 (786-0 renal) was 19.1 µM, the TGI (786-0 renal) was 47.3 µM and the GI50 (NCI-H226 lung) was 22.9 µM. For the same molecule, the TGI (NCI-H226 lung) was > 100 µM, the GI50 (RXF 393 renal) was 12.7 µM and the TGI (RXF 393 renal) was 27 µM. The GI50 (A498 renal) was 21.3 µM, the TGI (A498 renal) was 65.6 µM and the GI50 (KM12 colon) was 18.1 µM. The TGI (KM12 colon) was 41.8 µM, the GI50 (BT-549 breast) was 13.6 µM and the TGI (BT-549 breast) was 29.9 µM. For the same molecule, the GI50 (SNB-19 CNS) was 16.7 µM, the TGI (SNB-19 CNS) was 42.8 µM and the GI50 (CAKI-1 renal) was 20.8 µM. The TGI (CAKI-1 renal) was 99.3 µM, the GI50 (SF-268 CNS) was 28.7 µM and the TGI (SF-268 CNS) was > 100 µM. For the same molecule, the GI50 (ACHN renal) was 23.1 µM, the TGI (ACHN renal) was 72 µM and the GI50 (NCI-H460 lung) was 17.2 µM. It also gave a TGI (NCI-H460 lung) of 47.8 µM, a GI50 (NCI-H23 lung) of 16.1 µM and a TGI (NCI-H23 lung) of 37.3 µM.
